The results in this text go back to US9908870B2, “Crystalline form of a benzimidazole derivative and a preparation method thereof” (CJ HEALTHCARE CORPORATION, priority 2015, dated 2018).

Values joined by “and” are separate entries in the source; they are usually repeats but may differ in a detail not shown here. Identical values can stand only once. A value given as a limit tells only on which side of the number the result lay.

Holding throughout (assay type): physicochemical
A short description of data set [1]: Stability test under a photo-stressed condition.
Data set [2] in a line: Hygroscopicity test. From the text:
Compounds with low hygroscopicity are advantageous in preparing formulations, and also are advantageous for storage. Additionally, compounds with high hygroscopicity are not advantageous in that they are difficult to formulate, and reproducible results may hardly be obtained even though formulations can be successfully achieved.

A short description of data set [3]: Static-electricity inducibility test (bulk density, tapped density, Carr's Index). Conditions: for CI (Carr's Index): CI=100×(1−BD/TD), ≦30 value - good flowability.
Data set [4] can be described thus: Crystal stability test under severe stability testing conditions. Here is the method: Finally, a crystal stability test was performed to examine the stability of the crystalline form itself, and the results are shown in Table 4 below.
Setting [5] is: after 4 weeks, photo-stressed condition.
[6] abbreviates: after 4 weeks, photo-stressed condition (1,200,000 lux or higher and 200 W/m^2 or higher).
[7] abbreviates: after 4 weeks at 60±2° C., 80±5% RH.

As to `Cc1nc2c(O[C@H]3CCOc4cc(F)cc(F)c43)cc(C(=O)N(C)C)cc2[nH]1` [Crystalline form A, 4-[((4S)-5,7-difluoro-3,4-dihydro-2H-chromen-4-yl)oxy]-N,N,2-trimethyl-1H-benzimidazole-6-carboxamide], the “Content of impurities (related compounds)” value was 0.10% in data set [1] (setting [5]); at most 0.1% in data set [1] (after 4 weeks, photo-stressed condition, listed as crystalline form A); 0.10% in data set [1] (initial stage); at most 0.1% in data set [1] (initial stage, listed as crystalline form A). Besides, in data set [1] (setting [5]), the Optical purity is reported as 100%. The Appearance entry in data set [1] (setting [6]) and in data set [1] (initial stage) was “white” in each case. The Hygroscopicity in data set [2] (33% RH, after 4 weeks) came to 0.17; in data set [2] (75% RH, after 4 weeks) it was 0.20; in data set [2] (93% RH, after 4 weeks), 0.28. For the same molecule, in data set [2] (stored at 33%, 75% and 93% relative humidity for 4 weeks), the Hygroscopicity values result is reported as “below 0.3”. The “BD (bulk density)” value in data set [3] was 0.34 g/mL and 0.32 g/mL. The “TD (tapped density)” value in data set [3] came out at 0.45 g/mL. Further, in data set [3], the “CI (Carr's Index)” value was 24.44% and 28.89%. The Crystalline form entry in data set [4] (setting [7]) and in data set [4] (initial stage) was “crystalline form A” in each case. Moreover, the DSC in data set [4] (setting [7]) and in data set [4] (initial stage) was 223 °C in each case.
On to `Cc1nc2c(O[C@H]3CCOc4cc(F)cc(F)c43)cc(C(=O)N(C)C)cc2[nH]1` [Non-crystalline form, 4-[((4S)-5,7-difluoro-3,4-dihydro-2H-chromen-4-yl)oxy]-N,N,2-trimethyl-1H-benzimidazole-6-carboxamide], for which the “Increase in content of related compounds” value in data set [1] (after 4-week photoexposure vs initial) was at least 3 fold. Further, the “Increase in content of optical isomers” value in data set [1] (after 4 weeks photo-stressed condition vs initial) is on record as 10 fold. The “Content of impurities (related compounds)” value in data set [1] (setting [5]) was determined as 0.49%; in data set [1] (initial stage) it was 0.16%; in data set [1] (initial stage, listed as non-crystalline form) it was 0.16%. Also, the “Content of optical isomers” value was 0.47% in data set [1] (setting [5]) and 0.04% in data set [1] (initial stage). Besides, the Appearance result in data set [1] (setting [6]) was “yellow”; in data set [1] (initial stage), “white”. The Hygroscopicity is on record as 1.90 in data set [2] (33% RH, after 4 weeks); 4.09 in data set [2] (75% RH, after 4 weeks); 5.25 in data set [2] (93% RH, after 4 weeks); 1.32 in data set [2] (initial stage). For the same molecule, the “BD (bulk density)” value in data set [3] was 0.23 g/mL and 0.22 g/mL. In addition, the “TD (tapped density)” value in data set [3] was 0.39 g/mL and 0.38 g/mL. Besides, the “CI (Carr's Index)” value in data set [3] is 41.02% and 42.11%.
